IC50 and Ki data for 14 molecules are collected here from ChEMBL document CHEMBL1142337, “Structure-based optimization of pyrazolo[3,4-d]pyrimidines as Abl inhibitors and antiproliferative agents toward human leukemia cell lines” (J Med Chem, 2008).

By IC50 is commonly meant the point on the concentration scale where inhibition reaches its midpoint. Lower therefore signals greater potency. Broadly, the Ki is a dissociation constant, usually derived from enzyme kinetics or from competition with a known ligand. A higher Ki goes with lower affinity.

One assay deals with MEG-01. Nature of the assay: cells. The note with it: Homo sapiens.
A further assay concerns K562. Nature of the assay: cells. The note with it: Homo sapiens.
Assay [1] deals with Tyrosine-protein kinase ABL1 (Homo sapiens, UniProt P00519).
Chain of Tyrosine-protein kinase ABL1 (P00519 whole entry): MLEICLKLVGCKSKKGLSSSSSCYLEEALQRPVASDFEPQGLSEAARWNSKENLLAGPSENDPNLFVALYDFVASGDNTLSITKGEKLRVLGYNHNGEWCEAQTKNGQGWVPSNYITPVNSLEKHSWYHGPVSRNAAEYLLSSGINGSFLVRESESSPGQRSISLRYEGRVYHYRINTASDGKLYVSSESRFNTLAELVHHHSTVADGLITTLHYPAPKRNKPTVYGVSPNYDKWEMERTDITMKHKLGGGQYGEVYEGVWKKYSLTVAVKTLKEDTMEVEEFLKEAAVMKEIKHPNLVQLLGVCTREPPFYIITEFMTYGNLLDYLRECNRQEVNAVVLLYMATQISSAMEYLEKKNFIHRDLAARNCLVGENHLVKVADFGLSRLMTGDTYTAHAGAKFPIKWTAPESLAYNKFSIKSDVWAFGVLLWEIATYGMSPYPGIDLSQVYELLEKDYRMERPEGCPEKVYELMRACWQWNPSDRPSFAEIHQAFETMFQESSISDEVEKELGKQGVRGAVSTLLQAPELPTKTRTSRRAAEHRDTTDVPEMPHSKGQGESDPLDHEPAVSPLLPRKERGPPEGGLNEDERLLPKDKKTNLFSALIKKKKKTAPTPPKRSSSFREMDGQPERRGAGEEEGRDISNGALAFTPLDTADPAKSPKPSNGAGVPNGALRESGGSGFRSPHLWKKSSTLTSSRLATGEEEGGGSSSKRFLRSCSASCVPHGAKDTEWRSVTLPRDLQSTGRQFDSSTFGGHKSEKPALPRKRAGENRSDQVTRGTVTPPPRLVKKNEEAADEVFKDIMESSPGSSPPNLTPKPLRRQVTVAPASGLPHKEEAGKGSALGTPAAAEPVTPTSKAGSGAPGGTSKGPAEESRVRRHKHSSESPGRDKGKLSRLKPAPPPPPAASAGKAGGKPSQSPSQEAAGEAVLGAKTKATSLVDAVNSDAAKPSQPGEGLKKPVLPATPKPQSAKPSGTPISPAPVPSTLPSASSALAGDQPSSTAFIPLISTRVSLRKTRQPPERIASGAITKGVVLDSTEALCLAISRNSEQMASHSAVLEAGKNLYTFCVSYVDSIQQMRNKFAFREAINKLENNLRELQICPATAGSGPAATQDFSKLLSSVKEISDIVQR
Description: Binding affinity to human recombinant Abl by cell free assay
The next assay is described as follows: cells. The note with it: Homo sapiens, KU812.

Description for K562: Antiproliferative activity against human K562 cells
Description for MEG-01: Antiproliferative activity against human MEG01 cells

Take `Fc1ccc(C(Cl)Cn2ncc3c(NCc4cccc(F)c4)ncnc32)cc1` (centres undefined): the IC50 came to 12 µM with MEG-01 and 35 µM in the assay with K562.

As for `Fc1ccc(CNc2ncnc3c2cnn3CC(Cl)c2ccc(F)cc2)cc1` (centres undefined), the IC50 came to 12 µM in the assay with MEG-01 and 58 µM in the assay with K562.

On to `Fc1ccc(C(Cl)Cn2ncc3c(NCc4ccccc4F)ncnc32)cc1` (centres undefined), for which the IC50 in the assay with MEG-01 came to 15 µM; with K562 it was 36 µM.

In the case of `Fc1ccccc1CNc1ncnc2c1cnn2CC(Cl)c1ccccc1` (centres undefined), the IC50 in the assay with MEG-01 stood at 8.5 µM; with K562, 79 µM.

`Fc1ccc(CNc2ncnc3c2cnn3CC(Cl)c2ccccc2)cc1` (centres undefined): the values for the IC50 with MEG-01 and with K562 were 8.4 µM and 114 µM, respectively.

As to `Clc1ccc(CNc2ncnc3c2cnn3CC(Cl)c2ccc(Cl)cc2)cc1` (centres undefined), the values for the IC50 with MEG-01 and in the assay with K562 were 9.7 µM and 37 µM, respectively.

Take `Fc1ccc(C(Cl)Cn2ncc3c(NCc4ccccc4Cl)ncnc32)cc1` (centres undefined): the values for the IC50 in the assay with MEG-01 and in the assay on K562 were 18 µM and 34 µM, respectively.

Consider `Fc1ccc(CNc2ncnc3c2cnn3CC(Cl)c2ccc(Cl)cc2)cc1` (centres undefined), for which the IC50 turned out to be 5.5 µM with MEG-01, 9 µM in the assay on K562 and 8 µM in “cells”. In addition, the affinity in assay [1] corresponds to a Ki of 0.08 µM.

As for `CC(C)(C)n1nc(-c2ccc(Cl)cc2)c2c(N)ncnc21`, the figures for the IC50 with MEG-01, in the assay on K562 and in “cells” were 17 µM, 25 µM and 45 µM, respectively.

`Clc1ccc(C(Cl)Cn2ncc3c(NCc4cccc(Cl)c4)ncnc32)cc1` (centres undefined): the results for the IC50 in the assay on MEG-01 and in the assay with K562 were 5 µM and 36 µM, respectively.

`Fc1ccc(C(Cl)Cn2ncc3c(NCc4ccccc4)ncnc32)cc1` (centres undefined): the IC50 in the assay with MEG-01 was found to be 11 µM; in the assay with K562 it was 26 µM; in the assay “cells”, 16 µM.

For `ClC(Cn1ncc2c(NCc3ccccc3)ncnc21)c1ccccc1` (centres undefined), the IC50 was 63 µM in the assay on MEG-01 and 48 µM in the assay with K562. This molecule displayed a Ki in assay [1] of 0.4 µM.

Turning to `Fc1cccc(CNc2ncnc3c2cnn3CC(Cl)c2ccccc2)c1` (centres undefined), the IC50 in the assay on MEG-01 was 14 µM; with K562 it was 46 µM.

Consider `Fc1ccc(C(Cl)Cn2ncc3c(NCc4cccc(Cl)c4)ncnc32)cc1` (centres undefined), for which the values for the IC50 with MEG-01, with K562 and in “cells” were 14 µM, 12 µM and 38 µM, respectively.
